The source of these data is patent US8476455B2, “1-N-phenyl-amino-1h-imidazole derivatives and pharmaceutical compositions containing them” (Laboratoire Theramex, priority 2003, dated 2013).

In experiment [1] the target is human carbonic anhydrase II (Homo sapiens, UniProt P00918). The experiment is described as follows: Human carbonic anhydrase II activity (p-nitrophenyl acetate, colorimetric). It counts as biochemical. Conditions: read-out: Human carbonic anhydrase II activity IC50 (nm) ± S.E.M. How it is done:
Briefly, in this assay, human carbonic anhydrase II catalyses the conversion of p-nitrophenyl acetate into pnitrophenol. The potential inhibitory effect of test compounds was evaluated by colorimetric determination of prnitrophenol produced during the enzymatic reaction. The optical density levels obtained without inhibitor will be referred to as “total activity”. The levels obtained without Inhibitor and without the enzyme will be referred to as “blank” in order to assess any interference with the substrate during the assay (Table 2).

The test system of another experiment is MCF7 cells. The experiment is described as follows: ER+ human breast tumor tissue xenografted into nude rats. It counts as in vivo, nude rat (Rnu/Rnu). Conditions: for Volume variations (expressed as % of E1S positive control group): oral 5 mg/kg/day, nude rats supplemented with E1S. How it is done: MCF7 cells (ATCC), derived from human breast adenocarcinoma, were injected subcutaneously in ovariectomized athymic nude mice supplemented with a daily administration of subcutaneous estradiol. Xenograft volumes were determined weekly. After 8 weeks, tumor volumes reached 1000 mm3, providing 500 mg samples of estrogen responsive tissues for each animals. At this time each tumor was sliced and regrafted into naïve ovariectomized nude rat (Rnu/Rnu). Then animals were treated with estrone sulfate as precursor of estradiol by the steroid sulfatase pathway. When tumor volumes reached significant increase, distinct from the placebo, animals were randomized and separated in two groups. The first group was treated with Ex 45 and supplemented with daily administration of estrone sulfate. The second one was sham administered with the vehicle and supplemented with the same dosage of estrone sulfate. Ex 45 was orally administered at 5 mg/kg/day for 5 weeks. Xenografts were measured weekly by electronic Caliper and compared to the estrone sulfate group. (Table 5).

The target in another experiment is T1, human steroid sulfatase (Homo sapiens, UniProt P08842).
T1 construct: The JEG-3 cell line is intrinsically very rich in human estrone sulfatase; endogenous in cells; host or cells: JEG-3 (human placental choriocarcinoma)
T1 sequence (P08842 22-583): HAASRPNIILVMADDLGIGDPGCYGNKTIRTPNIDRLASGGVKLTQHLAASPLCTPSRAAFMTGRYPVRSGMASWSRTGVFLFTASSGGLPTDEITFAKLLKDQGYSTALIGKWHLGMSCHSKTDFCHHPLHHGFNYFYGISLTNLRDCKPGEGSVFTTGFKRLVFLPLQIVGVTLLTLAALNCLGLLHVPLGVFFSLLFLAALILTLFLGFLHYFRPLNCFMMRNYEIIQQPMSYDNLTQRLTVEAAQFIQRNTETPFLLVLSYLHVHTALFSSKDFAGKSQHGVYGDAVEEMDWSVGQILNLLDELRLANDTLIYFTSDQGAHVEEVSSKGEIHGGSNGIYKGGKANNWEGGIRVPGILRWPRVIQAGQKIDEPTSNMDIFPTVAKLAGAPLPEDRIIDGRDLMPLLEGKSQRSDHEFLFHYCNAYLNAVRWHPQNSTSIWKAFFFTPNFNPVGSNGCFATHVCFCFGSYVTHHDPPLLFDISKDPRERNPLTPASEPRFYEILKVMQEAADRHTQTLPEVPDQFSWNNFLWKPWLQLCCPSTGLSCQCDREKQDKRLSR
The experiment is described as follows: Dual aromatase and steroid sulfatase activities in JEG-3 cells: sulfatase readout. It counts as cell-based. Conditions: footnote c: dual aromatase and sulfatase activity, nd: not detected, read-out: Sulfatase activity IC50 (nM) ± S.E.M. How it is done:
The JEG-3 cell line is intrinsically very rich in human estrone sulfatase and therefore is a useful biological system to evaluate new steroid sulfatase inhibitors in vitro. Assays were carried out with cells in logarithmic growth phase on 96-well microplates. 24 h before studies, cells were seeded in decomplemented fetal calf serum (dFCS) supplemented medium. The medium was removed 24 h later and cells were rinsed with PBS to eliminate any trace of dFCS. Then, ^3H-E1S was added in dFCS free medium, followed by test compounds at concentrations ranging from 10^−12 M to 10^−5 M. After 4 h of treatment, the medium was transferred into 96-deep-well microplates and centrifuged at 200×g for 10 min to pellet cells before toluene extraction. A fraction of the medium was used for toluene extraction in order to separate the conjugated substrate from non-conjugated products. The radioactivity in the toluene phase was measured by liquid scintillation counting. In parallel, after cell solubilization in a ethylenediamine tetraacetate solution, DNA content was measured by a standard fluorimetric method using the Hoechst 33258 fluorochrome. Finally, estrone sulfatase activity was expressed in pmoles of ^3H-E1+^3H-E2 formed/4 hours/mg DNA and estrone sulfatase inhibition as a percentage of control activity without inhibitor.
In order to evaluate the inhibitory potency of DASI compounds in parallel on both human aromatase and steroid sulfatase activities, a new in vitro model was set up using JEG-3 cells. The experimental conditions of the steroid sulfatase model previously described was adopted with slight modifications: the presence of the two substrates ^3-HE1S and 1β-^3H-androstenedione into the medium and an incubation period of 2 hours. Results were expressed in pmoles of product formed (^3H-E1+^3H-E2 or ^3H2O)/2 hours/mg DNA (Table 1).

Broadly, the IC50 is the point on the concentration scale where inhibition reaches its midpoint.

As for `Cl.N#Cc1ccc(N(Cc2ccc(OS(N)(=O)=O)c(Br)c2)n2ccnc2)cc1` [Ex 45, Sulfamic acid 2-bromo-4-{[N-(4-cyanophenyl)-N-(1H-imidazol-1yl)amino]methyl}phenyl ester, hydrochloride], the values for the IC50 (in experiment [1]; on human steroid sulfatase) were 16.2 ± 3.3 nM and roughly 10 nM, respectively. For the same molecule, the “Volume variations (expressed as % of E1S positive control group)” value with MCF7 cells (Day 7) is listed as 0%; in the experiment with MCF7 cells (Day 28) it was −26%; with MCF7 cells (Day 35), −44%; in the experiment with MCF7 cells (Day 42), −39%. Also, the “decrease in tumor volume” value in the experiment on MCF7 cells (at the end of the experiments, after five weeks of daily treatment, 5 mg/kg/day oral) is 40%. Also, the “tumor volumes (in words)” value with MCF7 cells (vs groups only treated with estrone sulfate (E1S)) is reported as “did not increased”.
